Consider one compound from patent US8110570B2, “Modulators of acetyl-coenzyme A carboxylase and methods of use thereof” (Cropsolution, Inc., priority 2008, dated 2012).

One assay has as its system HepG2 cells. Put plainly: Fatty acid synthesis assay, 14C-acetate incorporation into phospholipids. It is filed as cell-based. The note with it: Homo sapiens, 24 h, read-out: inhibition of radiolabel incorporation into phospholipids. An excerpt:
The in vivo ACC inhibitory activity of compounds in this invention can be confirmed in cultured cells using standard procedures that are well known to those skilled in the art. For example, since ACC catalyzes the first committed step in fatty acid biosynthesis, the in vivo activity of compounds can be confirmed by measuring their ability to prevent the formation of radiolabeled fatty acids from radiolabeled acetate in cultured human hepatoma cells (HepG2). In addition, since the malonyl-CoA produced by ACC inhibits fatty acid oxidation, the in vivo ACC inhibitory activity of compounds can be further confirmed by measuring the stimulation of fatty acid oxidation in cultured mouse myoblast cells (C2C12).
Fatty acid synthesis assays are performed with slight modifications to published procedures (Beckers et al., Cancer Res, 2007, 67: 8180-8187; Wang, J Lipid Res., 2006, 47:2028-41). Briefly, HepG2 cells are grown in Dulbecco's modified eagles medium containing 10% fetal calf serum in 6-well culture plates. Cells are treated for 24 h with test compounds added as DMSO stock solutions to a final DMSO concentration of 0.5% (v/v). After test compound incubation, ^14C—[2]-acetate is added (3 μCi/6 well plate) and cells are further incubated for 4 hrs. Cells are then harvested in 40% methanol and assayed for total protein. Total lipids are extracted with chloroform:methanol (2:1) and ^14C-radioactivity is quantified in the aqueous and organic phases. Total lipids in the organic phase are separated by thin-layer chromatography (TLC, silica gel 60A) using hexane:ether:acetic acid (90:30:1) as the mobile phase. Radioactivity distribution of lipid classes on TLC plates is quantified by phosphorimaging (Molecular Dynamics Storm 820). Compound 6 inhibited radiolabel incorporation into phospholipids 32% and 14% at 10 μM and 1 μM, respectively, while Compound 2 inhibited radiolabel incorporation into phospholipids 93% and 42% at 10 μM and 1 μM, respectively.

The target of assay [1] is uACC (Ustilago maydis ACC) (Ustilago maydis, UniProt A0A0D1DYD5). Put plainly: [14C]bicarbonate incorporation assay, overall ACC activity. It is filed as biochemical.
uACC (Ustilago maydis ACC), sequence (A0A0D1DYD5 entry or part of it): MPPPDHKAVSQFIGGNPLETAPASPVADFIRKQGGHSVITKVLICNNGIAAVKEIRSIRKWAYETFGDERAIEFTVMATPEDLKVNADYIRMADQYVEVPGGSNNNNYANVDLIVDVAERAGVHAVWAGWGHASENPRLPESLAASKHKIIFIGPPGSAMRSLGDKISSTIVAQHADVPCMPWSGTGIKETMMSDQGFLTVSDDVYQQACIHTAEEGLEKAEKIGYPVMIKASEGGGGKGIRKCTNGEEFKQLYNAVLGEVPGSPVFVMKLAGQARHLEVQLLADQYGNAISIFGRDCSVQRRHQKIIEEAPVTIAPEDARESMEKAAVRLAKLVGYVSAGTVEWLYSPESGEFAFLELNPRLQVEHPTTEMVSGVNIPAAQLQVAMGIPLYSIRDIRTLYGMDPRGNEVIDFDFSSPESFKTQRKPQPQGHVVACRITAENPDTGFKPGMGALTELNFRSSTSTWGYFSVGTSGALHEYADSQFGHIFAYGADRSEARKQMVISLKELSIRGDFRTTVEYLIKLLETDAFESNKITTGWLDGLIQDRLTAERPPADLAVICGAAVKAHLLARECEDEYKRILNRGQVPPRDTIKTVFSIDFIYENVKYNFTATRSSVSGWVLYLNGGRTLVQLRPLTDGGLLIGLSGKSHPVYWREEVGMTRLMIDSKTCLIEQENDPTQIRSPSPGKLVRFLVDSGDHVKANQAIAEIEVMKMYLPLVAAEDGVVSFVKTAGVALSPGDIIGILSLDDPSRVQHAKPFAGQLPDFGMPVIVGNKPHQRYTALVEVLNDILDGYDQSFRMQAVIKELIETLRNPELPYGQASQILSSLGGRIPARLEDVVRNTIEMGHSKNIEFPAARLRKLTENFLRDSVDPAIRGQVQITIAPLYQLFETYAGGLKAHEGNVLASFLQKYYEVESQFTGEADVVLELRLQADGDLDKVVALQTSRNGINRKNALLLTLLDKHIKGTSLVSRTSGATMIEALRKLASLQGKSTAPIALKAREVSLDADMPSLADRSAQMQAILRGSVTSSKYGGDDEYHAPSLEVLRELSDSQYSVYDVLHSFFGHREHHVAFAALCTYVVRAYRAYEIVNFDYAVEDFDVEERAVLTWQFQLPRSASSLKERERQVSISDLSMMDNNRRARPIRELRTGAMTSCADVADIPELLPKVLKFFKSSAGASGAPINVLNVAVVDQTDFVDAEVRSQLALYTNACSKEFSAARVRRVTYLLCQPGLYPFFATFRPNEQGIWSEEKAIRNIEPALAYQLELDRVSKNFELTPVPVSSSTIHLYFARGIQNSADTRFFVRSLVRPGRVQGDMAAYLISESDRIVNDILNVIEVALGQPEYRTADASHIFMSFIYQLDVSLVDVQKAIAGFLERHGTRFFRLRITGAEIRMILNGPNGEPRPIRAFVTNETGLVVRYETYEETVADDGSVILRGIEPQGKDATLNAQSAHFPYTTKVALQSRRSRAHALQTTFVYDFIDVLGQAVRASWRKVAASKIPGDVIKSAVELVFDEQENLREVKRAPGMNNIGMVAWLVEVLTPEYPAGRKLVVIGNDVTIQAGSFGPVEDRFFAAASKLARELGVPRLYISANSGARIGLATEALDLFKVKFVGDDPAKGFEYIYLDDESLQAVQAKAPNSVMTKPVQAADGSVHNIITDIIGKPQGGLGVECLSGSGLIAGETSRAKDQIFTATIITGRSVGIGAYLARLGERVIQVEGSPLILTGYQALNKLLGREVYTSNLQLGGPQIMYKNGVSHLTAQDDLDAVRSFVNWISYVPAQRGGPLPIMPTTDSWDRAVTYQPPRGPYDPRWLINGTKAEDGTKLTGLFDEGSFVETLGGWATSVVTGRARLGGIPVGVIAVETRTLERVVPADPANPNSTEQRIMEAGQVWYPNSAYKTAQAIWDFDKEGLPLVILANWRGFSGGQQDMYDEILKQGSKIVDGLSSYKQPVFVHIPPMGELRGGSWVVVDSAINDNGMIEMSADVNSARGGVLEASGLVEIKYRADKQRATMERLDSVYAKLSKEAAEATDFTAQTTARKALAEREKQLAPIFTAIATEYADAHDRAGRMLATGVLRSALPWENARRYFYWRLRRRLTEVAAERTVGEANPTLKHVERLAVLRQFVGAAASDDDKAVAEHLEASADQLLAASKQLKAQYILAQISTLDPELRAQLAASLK

Each structure is given as a SMILES string.

Consider `COc1cc(C(=O)N2CCC3(CC2)NC(=O)c2cc(Br)ccc2O3)nc2c(OC)cccc12` [Compound 2, 6-Bromo-1′-[(4,8-dimethoxyquinoline-2-yl)carbonyl]spiro[2H-1,3-benzoxazine-2,4′-piperidine]-4(3H)-one], for which the inhibition at 1 µM in the assay on HepG2 cells (HepG2, 1 μM) came to 42%. For the same compound, the inhibition at 10 µM in the assay on HepG2 cells (HepG2, 10 μM) is 93%. In addition, in assay [1], the midpoint of inhibition, the IC50, lay at 11 µM.
